From US6930207B2, “Trifluoroacetylalkyl-substituted phenyl, phenol and benzoyl compounds and related methods of treatment” (Solvay Pharmaceutical GmbH, priority 2001, dated 2005)
Like-named read-outs stand apart in the source and are kept apart here.

How the values were obtained:
[1] = molecular target: T1, porcine pancreatic lipase (Sus scrofa, UniProt P00591); experiment: in vitro pancreatic lipase activity test (lipolytic release of p-nitrophenol from p-nitrophenyl palmitate, extinction at 405 nm); format: biochemical; conditions: read-out: residual lipase activity, relative to the original initial lipolytic activity; for remaining activity at 0.182 µM: test substance concentration 0.182 μM; for remaining activity at 0.091 µM: test substance concentration 0.091 μM
T1 sequence (P00591 1-450): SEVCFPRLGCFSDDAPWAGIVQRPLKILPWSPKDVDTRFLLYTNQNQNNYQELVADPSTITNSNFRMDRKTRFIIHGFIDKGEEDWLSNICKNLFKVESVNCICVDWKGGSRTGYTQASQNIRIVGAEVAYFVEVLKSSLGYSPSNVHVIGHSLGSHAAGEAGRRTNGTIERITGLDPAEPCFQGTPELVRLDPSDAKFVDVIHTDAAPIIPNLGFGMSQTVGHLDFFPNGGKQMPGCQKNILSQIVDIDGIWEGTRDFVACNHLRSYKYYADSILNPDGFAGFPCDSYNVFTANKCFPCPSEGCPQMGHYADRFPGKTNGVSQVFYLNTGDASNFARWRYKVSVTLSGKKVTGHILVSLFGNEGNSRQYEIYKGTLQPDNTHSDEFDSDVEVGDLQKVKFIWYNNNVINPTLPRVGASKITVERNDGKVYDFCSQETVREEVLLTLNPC
Protocol: In this test the inhibition of the lipolytic action of porcine pancreatic lipase with respect to the test substrate p-nitrophenyl palmitate under the influence of the test substances of Formula I was determined. Therein, the change in the relative extinction of the investigated solutions caused by the lipolytic release of p-nitrophenol from p-nitrophenyl palmitate was measured. The residual activity of the lipase remaining after the addition of the test substances is given in percent, relative to the original initial lipolytic activity. The example numbers quoted relate to the preparation examples given below.
The reagents given below are prepared: • 1. Substrate Solution • For the preparation of a “solution A”, 45 mg p-nitrophenyl palmitate was dissolved in 15 ml isopropanol by sonication with ultrasound. For the preparation of a “solution B” 310 mg Na-deoxycholate dry substance and 150 mg gum arabic were dissolved in 135 ml 0.05 M sodium phosphate buffer (pH=8.0). 5 minutes before the test was performed, 9 ml “solution B” was mixed with 1 ml “solution A” to form a “solution C” and brought to a temperature of 38° C. • 2. Pancreatic Lipase Solution • 100 mg FIP-lipase standard LS7 (porcine pancreatic lipase, 36,700 FIP units/g) were dissolved in 50 ml ice-cold 1%-strength aqueous sodium chloride solution and filtered through a 0.2 μm-syringe filter. After determination of the lipase activity in accordance with FIP, the solution was set to an activity of 40 FIP units/ml with 1%-strength aqueous sodium chloride solution. Dilute pancreatic lipase solutions which had activities of in each case 10, 20 and 30 FIP units/ml were also prepared from the pancreatic lipase solution for a calibration series by diluting with 1%-strength aqueous sodium chloride solution. • 3. Inhibitor Solutions • The lipase-inhibitory compounds of Formula I were dissolved in various concentrations in dimethyl sulfoxide (DMSO), so that between 2.0 and 800 nmol of the inhibitor were present in 100 μl inhibitor solution. Pure DMSO was used to determine the blank reading. Performance of the Test
100 μl of the inhibitor solution of a given concentration prepared as described above was temperature-controlled for 5 minutes in the cell changer of a photometer (Biochrom 4060). Then 1 ml of the above “solution C” was added with stirring. Then the reaction was started by addition of 100 μl pancreatic lipase solution with stirring. 2 minutes after the start of the reaction, the extinction of each sample was detected for 4 minutes at 405 nm.
In each case, in addition to the sample measurement, a calibration series was also measured to determine the lipase activity. […] The calibration series served to determine the lipase activity. To determine the calibration series, the lipase units used were plotted against the extinction values (dE/min) determined in each case. Using these calibration lines and the extinction values determined for the respective incubation batches, the lipase activity can be determined for each sample. […] To determine the blank reading, 100 μl DMSO were mixed with 1 ml “solution C” and the reaction was started by addition of 100 μl of a lipase solution.
The measured value of the photometer per batch (dE/min.) is yielded by the difference in the extinction values after the second and sixth minute (dE) divided by the measuring time (dt=4 min.). The blank reading is determined analogously and then subtracted from the measured value. The residual activity can be read off via the calibration line by means of the dE value calculated in this manner.
In the pancreatic lipase activity test set forth above, the test substances given below each in a concentration (c) of 0.727 μM (unless otherwise stated) caused an inhibition of the lipase activity to the fraction of the original initial activity given below. The compounds of Examples 17, 28, 29, 32, 39, 40, 47, 48, 56, 58 and 59 were measured in a concentration of 0.364 μM each time. […]

[2] = substrate p-nitrophenyl palmitate
[3] = test substance concentration (c) 0.727 μM, substrate p-nitrophenyl palmitate
[4] = range of examples with mixed concentrations: 0.727 μM unless otherwise stated, Ex. 17, 28, 29, 32, 39, 40, 47, 48, 56, 58, 59 at 0.364 μM, 21, 35, 37, 38, 49, 50, 51, 54, 55, 64 at 0.182 μM, 46, 61, 62, 65 at 0.091 μM

Row | SMILES | remaining activity at 0.182 µM [1, 2] | remaining activity at 0.727 µM [1, 3] | melting point | further results
1 | COc1ccc(C(=O)CCCC(=O)C(F)(F)F)cc1CCCCc1ccccc1 [Example 35, 6,6,6-trifluoro-1-[4-methoxy-3-(4-phenylbutyl)phenyl]hexane-1,5-dione] | ≤ 35% |  |  | 
2 | O=C(CCCC(=O)C(F)(F)F)c1cccc(OCc2ccccc2)c1 [Example 34, 6,6,6-trifluoro-1-(3-benzyloxyphenyl)hexane-1,5-dione] |  | ≤ 20% |  | 
3 | O=C(CCCC(=O)C(F)(F)F)c1ccc2c(c1)CCCC2 [Example 60, 6,6,6-trifluoro-1-(5,6,7,8-tetrahydronaphthalen-2-yl)hexane-1,5-dione] |  |  |  | remaining activity at 0.727 µM [1, 4]: ≤ 20%
4 | O=C(CCCCCCCCCc1ccccc1)C(F)(F)F [Example 8, 1,1,1-trifluoro-11-phenyl-undecan-2-one] |  | ≤ 60% |  | 
5 | O=C(CCCCCCCCCCOc1ccccc1)C(F)(F)F [Example 5, 1,1,1-trifluoro-12-phenoxy-dodecan-2-one] |  | ≤ 60% | 47 to 49 °C | 
6 | O=C(CCCC(=O)C(F)(F)F)c1ccc(OCCCCOc2ccccc2)cc1 [Example 54, 6,6,6-trifluoro-1-(4-(4-phenoxybutoxy)phenyl)hexane-1,5-dione] | ≤ 35% |  | 78.8 to 80.4 °C | remaining activity at 0.727 µM [1, 4]: ≤ 60%
7 | CCCCCCCCCCCCCCOc1ccc(C(=O)CCCC(=O)C(F)(F)F)cc1 [Example 65, 6,6,6-trifluoro-1-(4-(tetradecyloxy)phenyl)hexane-1,5-dione] |  |  | 63.3 to 65 °C | remaining activity at 0.091 µM [1, 2]: ≤ 20%
8 | O=C(CCCC(=O)C(F)(F)F)c1ccc(OCCCc2ccccc2)cc1 [Example 55, 6,6,6-trifluoro-1-(4-(3-phenylpropoxy)phenyl)hexane-1,5-dione] | ≤ 35% |  | 52.6 to 54.5 °C | remaining activity at 0.727 µM [1, 4]: ≤ 60%
9 | O=C(CCCC(=O)C(F)(F)F)c1ccc(-c2ccc3ccccc3c2)cc1 [Example 62, 6,6,6-trifluoro-1-(4-(2-naphthyl)phenyl)hexane-1,5-dione] |  |  |  | remaining activity at 0.727 µM [1, 4]: ≤ 20%; remaining activity at 0.091 µM [1, 2]: ≤ 60%

Continued, in another order:

Row | remaining activity at 0.182 µM [1, 2] | remaining activity at 0.727 µM [1, 3] | melting point | SMILES | further results
10 |  | ≤ 60% |  | COc1ccc(CCCC(=O)C(F)(F)F)cc1 [Example 11, 5-(4-methoxyphenyl)-1,1,1-trifluoropentan-2-one] | 
11 | ≤ 20% |  |  | O=C(CCCC(=O)C(F)(F)F)c1ccc(-c2cccc3ccccc23)cc1 [Example 37, 6,6,6-trifluoro-1-[4-(1-naphthyl)phenyl]hexane-1,5-dione] | 
12 |  |  | 32 to 35 °C | O=C(CCCOc1ccc(OCCCc2ccccc2)cc1)C(F)(F)F [Example 32, 1,1,1-trifluoro-5-[4-(3-phenylpropoxy)phenoxy]pentan-2-one] | 
13 |  | ≤ 35% |  | O=C(CCCC(=O)C(F)(F)F)c1ccc(Br)cc1 [Example 57, 1-(4-bromophenyl)-6,6,6-trifluorohexane-1,5-dione] | 
14 |  |  | 67.7 to 68.9 °C | CCCCCCCCCCCCCCCCOc1ccc(C(=O)CCCC(=O)C(F)(F)F)cc1 [Example 63, 6,6,6-trifluoro-1-(4-(hexadecyloxy)phenyl)hexane-1,5-dione] | 
15 | ≤ 20% |  |  | COc1ccc(C(=O)C(CCCCOc2ccccc2)CCC(=O)C(F)(F)F)cc1 (stereo not shown) [Example 38, 6,6,6-trifluoro-1-(4-methoxyphenyl)-2-(4-phenoxybutyl)hexane-1,5-dione] | 
